How the values were obtained:
Type in all cases: functional
Spodoptera litura [1] = assay: Antifeedant activity against Spodoptera litura at 1 ug
Spodoptera litura [2] = assay: Antifeedant activity against Spodoptera litura at 0.5 ug
Spodoptera litura [3] = assay: Antifeedant activity against Spodoptera litura at 5 ug

Structure (SMILES)	Activity (Spodoptera litura [1])	Activity (Spodoptera litura [2])	Activity (Spodoptera litura [3])
CC(=O)O[C@@H]1[C@H](O)[C@H]2C(C)(C)C(=O)C=C[C@]2(C)[C@H]2CC[C@]3(C)C(=CC[C@H]3c3ccoc3)[C@]12C [NIMONOL]	55.7%	32.5%	32.2%
CC(=O)O[C@@H]1[C@H](O)[C@H]2C(C)(C)C(=O)C=C[C@]2(C)[C@H]2CC[C@@]3(C)[C@H](C45CC(O)OC4O5)C[C@@H]4O[C@@]43[C@]12C (some centres not stated) [NIMONOL PP2]	68.7%	55.3%	73.5%
CC(=O)O[C@@H]1[C@H](O)[C@H]2C(C)(C)C(=O)C=C[C@]2(C)[C@H]2CC[C@@]3(C)[C@H](C4=CC(O)OC4=O)C[C@@H]4O[C@@]43[C@]12C (some centres not stated) [NIMONOLIDE]	80.2%	67.5%	82.5%
C/C=C(\C)C(=O)O[C@H]1C[C@@H](OC(C)=O)[C@@]2(C(=O)OC)CO[C@H]3[C@@H](O)[C@@](C)([C@]45O[C@@]4(C)[C@@H]4C[C@H]5O[C@@H]5OC=C[C@@]54O)[C@H]4[C@]1(CO[C@]4(O)C(=O)OC)[C@@H]32 [AZADIRACHTIN A]	85.5%	83.3%	100%

— ChEMBL document CHEMBL3046719, “Photooxygenation of Nimonol, a Tetranortriterpenoid from Azadirachta indica. A. Juss” (2002)
